According to paper PMC11351612, “Heteronuclear Complexes with Promising Anticancer Activity against Colon Cancer” (Biomedicines, 2024):

What was measured:
[1] = Distribution coefficient (logP7.4), n-octanol-water shake-flask; format: physicochemical; conditions: n-octanol / buffered saline pH 7.4, shake-flask
Protocol: Distribution coefficient (logP7.4). The n-octanol-water coefficients of the complexes were determined using a shake-flask method, as previously reported. Briefly, buffered-saline distilled water (100 mL, phosphate buffer [PO4^3−] = 10 mM, [NaCl] = 0.15 M, pH 7.4) and n-octanol (100 mL) were shaken together for 72 h to allow for saturation of both phases. Approximately 1 mg of the complexes was dissolved in 5 mL of the aqueous phase and 5 mL of the organic phase was added, mixing them for 10 min. The resulting emulsion was centrifuged to separate the phases. The concentration of the compounds in each phase was determined using UV-vis absorbance spectroscopy. The logP7.4 was defined as log{[compound(organic)]/[compound(aqueous)]}.

[2] = Solution stability by UV-vis in PBS; format: physicochemical; conditions: PBS pH 7.4, 37 °C; for Stability under physiological conditions (UV-vis spectrum over time): 24 h
Protocol: Solution chemistry. The stability of the dinuclear derivatives was analysed by absorption UV-vis spectroscopy. UV-vis absorption spectra of the complexes were recorded on a Thermo Scientific spectrophotometer. Solutions of the complexes (5 × 10^−5 M) in PBS (pH = 7.4) were prepared from 20 mM DMSO stock solutions and thereafter monitored over 24 h at 37 °C, measuring the electronic spectra.
The solution stability of the new heterometallic compounds was determined under physiological conditions. To simulate conditions similar to those in cell culture and the body, the compounds were dissolved in a phosphate-buffered saline solution (PBS) with a pH of 7.4 and then incubated at 37 °C. The UV spectra of each complex were recorded at different time intervals (Figure S14). Qualitative determination of the stability of the compounds under such conditions was achieved by comparing the spectra obtained at each time point.

[3] = target: T1, bovine serum albumin (BSA) (Bos taurus, UniProt P02769); test: BSA UV-vis absorption superposition (static vs dynamic quenching); format: binding; conditions: compound 24 μM, absorption spectra superposition
T1 construct: purchased Sigma Aldrich (St. Louis, MO, USA)
T1 sequence (P02769 25-607): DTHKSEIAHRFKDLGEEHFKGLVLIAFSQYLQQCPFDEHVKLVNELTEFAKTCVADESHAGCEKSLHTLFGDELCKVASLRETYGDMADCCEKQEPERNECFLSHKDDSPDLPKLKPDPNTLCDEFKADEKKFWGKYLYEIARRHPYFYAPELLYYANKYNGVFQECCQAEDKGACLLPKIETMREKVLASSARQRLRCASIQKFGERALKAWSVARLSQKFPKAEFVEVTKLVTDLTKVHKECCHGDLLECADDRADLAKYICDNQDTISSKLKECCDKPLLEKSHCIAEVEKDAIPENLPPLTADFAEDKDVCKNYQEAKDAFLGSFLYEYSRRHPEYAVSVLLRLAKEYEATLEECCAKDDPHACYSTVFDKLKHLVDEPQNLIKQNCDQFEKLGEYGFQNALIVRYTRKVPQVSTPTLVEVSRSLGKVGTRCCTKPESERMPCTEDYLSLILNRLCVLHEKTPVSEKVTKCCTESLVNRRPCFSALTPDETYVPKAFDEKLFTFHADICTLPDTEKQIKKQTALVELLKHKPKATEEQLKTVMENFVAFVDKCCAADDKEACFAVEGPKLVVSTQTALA
Protocol: Furthermore, examination of the absorption spectra of the fluorophores can be used as a means of characterising static and dynamic quenching. Given the premise that static quenching entails complex formation, alterations in the absorption spectra of BSA are to be anticipated. Conversely, since dynamic quenching only affects the excited states of BSA, its absorption spectra would remain unaltered. The absorption spectra of BSA were recorded in the absence and presence of each compound at a concentration of 24 μM, as well as the absorption spectrum of the compound at the same concentration. A mathematical superposition of the spectrum of BSA and the spectrum of the compounds was calculated.

Caco-2/PD7 cells = test: MTT cell proliferation assay, Caco-2/PD7; format: cell-based, human; conditions: for Cytotoxic activity compared with mononuclear precursor [Au(Spy)(PTA)] (fold): Caco-2 PD7 and TC7 clones, ratio of IC50; for IC50: MTT, 72 h, mean ± SE of at least three determinations
Protocol: (§1) Cell culture. Human colon cancer Caco-2 cells (PD7 and TC7 clones) were kindly provided by Dr. Edith Brot-Laroche (Université Pierre et Marie Curie-Paris 6, UMR S 872, Les Cordeliers, Lyon, France) and grown in Dulbecco’s Modified Eagles medium (DMEM) (Gibco Invitrogen, Paisley, UK) supplemented with 20% foetal bovine serum (FBS), 1% non-essential amino acids, 1% streptomycin (1000 μg/mL), 1% penicillin (1000 μg/mL), and 1% amphotericin (250 U/mL). Caco-2 cells were maintained at 37 °C in a humidified atmosphere at 5% CO2.
(§2) Cell proliferation assay. Cell proliferation was measured using the 3-(4,5-dimethyl-2-thiazoyl)-2,5-diphenyltetrazolium bromide (MTT) assay, as previously described. Caco-2/TC7 cells were seeded in a 96-well plate at a density of 4000 cells/well and grown for 24 h before being treated with each complex or DMSO (used as control). After 72 h of incubation with the complexes, 10 μL of MTT (5 mg/mL) were added and incubation was continued at 37 °C for 3 h. Inversion removed the medium and 100 μL of DMSO were added to each well. Absorbance at 560 nm, proportional to many living cells, was measured by spectrophotometry (SPECTROstar Nano, BMG LABTECH, Ortenberg, Germany) and converted into a percentage (%) of growth inhibition.
(§3) The antiproliferative effects of the mononuclear and heteropolinuclear complexes were tested on two different Caco-2 cancer cell lines (PD7 and […]). […] Caco-2 cells of both PD7 and TC7 clones were exposed to increasing concentrations of the assayed compounds through dose–response/cell viability analysis. The results in terms of the IC50 parameter (Table 4) were obtained by using the MTT protocol.

Caco-2/TC7 cells = test: MTT cell proliferation assay, Caco-2/TC7; format: cell-based, human; conditions: 72 h, mean ± SE of at least three determinations
Protocol: as §1, §2, §3

[4] = tested on: differentiated Caco-2/PD7 cells; test: Cell viability of differentiated (enterocyte-like) Caco-2/PD7 cells; format: cell-based, human; conditions: for Cell viability of differentiated Caco-2 cells at 2 × IC50: differentiated Caco-2/PD7, concentration = 2 × IC50, 72 h
Protocol: For cell viability studies of differentiated (enterocyte-like) cells, Caco-2/PD7 cells were seeded on 96-well plates at a density of 4 × 10^3 cells/well and incubated for approximately 10–15 days, changing the culture medium every 3 days, up to reaching confluence—the moment in which the cells were treated with the complexes at concentrations equal to their mean IC50 and 2 × IC50 values.
It is well known that the Caco-2 cell line undergoes spontaneous differentiation into enterocytic-like cells when it reaches confluency. As a result, these cells become polarised, expressing apical and basolateral surfaces with established tight junctions. This allowed for the evaluation of the cytotoxic impact of the complexes on differentiated cells (acting as noncarcinogenic) and a comparison with the viability of undifferentiated cells. Thus, the toxicity of the two heteronuclear compounds has been studied by cell viability experiments by treatment of Caco-2/PD7 cells after differentiation with complexes 1 and 2 at the corresponding concentrations equivalent to IC50 and 2 × IC50 values for 72 h. The results expressed as the % of cell viability observed after treatment with the complexes (or 100% for non-treated control cells) are summarised in Figure S16 (Supplementary Materials). […] However, the cell viability is around 90% even when the cells are treated with double the IC50 concentration.

[Cu{Au(Spy)(PTA)}2]PF6 [compound 1]
logP [1]: 0.84 | Solubility in PBS (qualitative) [2]: reduced solubility in PBS | Stability under physiological conditions (UV-vis spectrum over time) [2]: notable stability | Quenching / binding mode with BSA [3]: dynamic binding | Cytotoxic activity compared with mononuclear precursor [Au(Spy)(PTA)] (fold) (Caco-2/PD7 cells; listed as Au2Cu compound (2)): 15 | IC50 (Caco-2/PD7 cells): 160 ± 20 nM | IC50 (Caco-2/TC7 cells): 130 ± 70 nM | Cell viability of differentiated Caco-2 cells at 2 × IC50 [4]: around 90%

[Zn{Au(PTA)(Spy)}2](NO3)2 [compound 2]
logP [1]: 0.47 | Solubility in PBS (qualitative) [2]: highly soluble | Stability under physiological conditions (UV-vis spectrum over time) [2]: remained unaltered for a period of 24 h | Quenching / binding mode with BSA [3]: static binding mode may be implied | Cytotoxic activity compared with mononuclear precursor [Au(Spy)(PTA)] (fold) (Caco-2/PD7 cells): slight improvement | IC50 (Caco-2/PD7 cells): 2180 ± 240 nM | IC50 (Caco-2/TC7 cells): 1940 ± 810 nM | Cell viability of differentiated Caco-2 cells at 2 × IC50 [4]: 87.66 ± 2.85% | Cell viability of differentiated Caco-2 cells at IC50 ([4]; differentiated Caco-2/PD7, concentration = IC50, 72 h): 92.14 ± 4.22%
